Key:
Type in all cases: in vivo, human
[1] = tested on: premature CVD patients by MTHFR C677T genotype; assay: Blood pressure in 16-week placebo controlled riboflavin intervention trial, premature CVD patients; settings: for Diastolic blood pressure / Systolic blood pressure: mean (SD)
Text: (§1) Ethical approval was granted by both the Research Ethical Committee of the University of Ulster and Altnagelvin Hospital Trust, Londonderry, Northern Ireland. Premature CVD patients, males aged 55 years and females aged 65 years and under at time of event were recruited from the cardiac department of Altnagelvin hospital. Patients were indicated by a previous myocardial infarction (MI) or angina diagnosed by ECG changes. Potential participants (n=404) were screened for MTHFR genotype on the basis of a buccal swab sample. Those with the TT genotype were identified (n=54); these were age and sex matched with a similar number of patients with the CC or CT genotypes, resulting in a total of 197 patients who were invited to participate in the current intervention study (see FIG. 1). Exclusion criteria for all subjects were history of hepatic or renal disease, consumers of B-vitamin supplements, those taking medication known to interfere with folate metabolism, at least 3 months post MI prior to blood sampling. All volunteers provided written informed consent and completed a health and medical/lifestyle questionnaire which included questions regarding family history of CVD and smoking habits.
(§2) The study was a 16-week placebo controlled intervention trial. […] Non-fasting blood samples were collected at screening and post intervention either at Altnagelvin hospital, their workplace or their own homes.
(§3) Blood pressure measurements were recorded as the mean of two separate measurements taken 15 minutes apart using an Omcron 705CP electronic blood pressure monitor (Medisave, Dorset, UK). Weight (kg) and height in (m), were used to calculate BMI (weight (kg)/height^2 (m)). Waist circumference (cm) was also measured. All measurements were made using Seca approved equipment (Brosch Direct, Ltd, Peterborough, UK).
All statistical analysis was performed using the SPSS statistical package for the social sciences (version 11.0, SPSS UK Ltd., Chersey, United Kingdom). For normalisation purposes variables were log-transformed as appropriate prior to statistical analysis. One way ANOVA with Tukey's post hoc test was used to examine the differences in the baseline characteristics among the genotype groups. Categorical data were assessed using chi squared analysis. Correlation analysis was performed using bivariate Pearson correlation coefficients. […] P values<0.05 were considered significant.

[2] = tested on: healthy subjects by MTHFR C677T genotype; assay: Blood pressure response to riboflavin intervention in healthy individuals; settings: for Diastolic blood pressure / Systolic blood pressure: healthy subjects, median
Protocol: as §3
Measurements were taken and recorded according to the procedures described in Example 1 above. The results obtained, namely the baseline characteristics of healthy subjects pre-screened and age-matched for MTHFR genotype (n=124), are shown in Table 4.
A placebo controlled intervention study in 81 healthy individuals was carried out.

[3] = tested on: premature CVD patients by MTHFR C677T genotype; assay: Plasma homocysteine (immunoassay) in 16-week riboflavin intervention trial, premature CVD patients; settings: mean (SD)
Text: as §1, §2
One 30 ml blood sample was collected from each patient, one 9 ml EDTA tube for plasma and washed red cells, one 4 ml EDTA tube for the preparation of red blood cell lysates and the measurement of haemoglobin (HB) and packed cell volume (PCV); one 8 ml serum separation tube for serum extraction, one 5 ml serum separation tube for lipid profile analysis and one 4 ml sodium citrate tube for coagulation screening. The 9 ml EDTA was immediately wrapped in tin foil and placed on ice. Samples were centrifuged within 2 hours of sampling at 3000 rpm for 15 minutes. Plasma was removed and stored at −80° C. for plasma homocysteine and PLP analysis. The buffy layer was removed for confirmation of MTHFR genotyping and stored at −20° C. The remaining red blood cells were thrice washed with phosphate buffered saline (PBS) with the supernatant and remaining buffy layer being discarded after each wash. […] Serum was removed and stored at −80° C. for serum folate.
Plasma homocysteine was measured by immunoassay using the Abbott Imx analyser (Leino A., 1999, “Fully automated measurement of total homocysteine in plasma and serum on the Abbott IMx analyzer.” Clin. Chem, 45, 569-71). Serum folate and red blood cell folate concentrations were determined by microbiological assay using the cryopreserved, microtitre plate method (Molloy et al, 1997, “Microbiological assay for serum, plasma, and red cell folate using cryopreserved, microtiter plate method.” Methods Enzymol, 281, 43-53). Plasma PLP was determined by reverse-phase high pressure liquid chromatography (HPLC) with fluorescence detection (Bates et al, 1999, “Plasma pyridoxal phosphate and pyridoxic acid and their relationship to plasma homocysteine in a representative sample of British men and women aged 65 years and over.” British Journal of Nutrition, 1, 191-201). Identification of the MTHFR C677T genotype was carried out using the polymerase chain reaction (PCR) amplification followed by HinF1 (Frosst et al, 1995, “A candidate genetic risk factor for vascular disease: A common mutation in methylenetetrahydrofolate reductase.” Nat Genetc, 10, 111-113). […] Coagulation screening was measured by ACI Instrumentation Laboratories. HB and PCV were measured using Sysmex XE-2100 (Sysmex, UK Ltd. Milton Keynes UK) analyser and lipid profiles were measured using Abbott Architect CI 8200 analyser (Abbott Laboratories, USA). For all assays, samples were analysed blind, in duplicate and within 1 year of collection. […]

[4] = CC genotype, premature CVD patients, Post 16 weeks riboflavin 1.6 mg/day, n = 32
[5] = CC genotype, premature CVD patients, Pre intervention, n = 32
[6] = CT genotype, premature CVD patients, Post 16 weeks riboflavin 1.6 mg/day, n = 35
[7] = CT genotype, premature CVD patients, Pre intervention, n = 35
[8] = TT genotype, premature CVD patients, 16 weeks low-dose riboflavin
[9] = TT genotype, premature CVD patients, Post 16 weeks riboflavin 1.6 mg/day, n = 25
[10] = TT genotype, premature CVD patients, Pre intervention, n = 25
[11] = estimated from the magnitude of blood pressure lowering in TT patients
[12] = CC genotype, After riboflavin 1.6 mg/d, 16 weeks
[13] = CC genotype, Before intervention
[14] = CT genotype, After riboflavin 1.6 mg/d, 16 weeks
[15] = CT genotype, Before intervention
[16] = TT genotype, After riboflavin 1.6 mg/d, 16 weeks
[17] = TT genotype, Before intervention

Q: With `Cc1cc2nc3c(=O)[nH]c(=O)nc-3n(C[C@H](O)[C@H](O)[C@H](O)CO)c2cc1C` [Riboflavin, riboflavin] as the compound, how does the Diastolic blood pressure [1, 4] read?
A: 80.4 (12.0) mmHg

Q: What about the Systolic blood pressure [1, 4] of the same compound?
A: 133.4 (15.3) mmHg

Q: What about the Diastolic blood pressure [1, 5] of the same compound?
A: 80.1 (8.9) mmHg

Q: And the Systolic blood pressure [1, 5]?
A: 134.3 (14.9) mmHg

Q: What about the “effect on blood pressure (either systolic or diastolic)” value ([1]; CC genotype, premature CVD patients, following riboflavin administration) of the same compound?
A: no significant reduction

Q: What about the Diastolic blood pressure [1, 6] of the same compound?
A: 84.2 (9.2) mmHg

Q: What about the Systolic blood pressure [1, 6] of the same compound?
A: 135.4 (15.4) mmHg

Q: And the Diastolic blood pressure [1, 7]?
A: 86.0 (10.8) mmHg

Q: What about the Systolic blood pressure [1, 7] of the same compound?
A: 136.2 (16.9) mmHg

Q: What about the “decrease in diastolic blood pressure” value [1, 8] of the same compound?
A: 8 units

Q: What about the “decrease in systolic blood pressure” value [1, 8] of the same compound?
A: 11 units

Q: And the “effect on systolic and diastolic blood pressure” value [1, 8]?
A: significant lowering

Q: What about the Diastolic blood pressure [1, 9] of the same compound?
A: 80.2 (14.2) mmHg

Q: And the Systolic blood pressure [1, 9]?
A: 131.6 (20.9) mmHg

Q: And the Diastolic blood pressure [1, 10]?
A: 88.1 (14.2) mmHg

Q: What about the Systolic blood pressure [1, 10] of the same compound?
A: 142.8 (22.1) mmHg

Q: And the “lowering of risk of heart disease estimated from meta-analyses” value [1, 11]?
A: 29%

Q: What about the “lowering of risk of stroke estimated from meta-analyses” value [1, 11] of the same compound?
A: 46%

Q: And the “effect on systolic or diastolic blood pressure” value ([2]; healthy cohort with the TT genotype, 1.6 mg/day for 16 weeks)?
A: no significant systolic or diastolic blood pressure lowering effect

Q: What about the “effect on diastolic blood pressure” value ([2]; healthy individuals, CC group, 1.6 mg/day for 16 weeks) of the same compound?
A: increase

Q: What about the Diastolic blood pressure [2, 12] of the same compound?
A: 86.5 mmHg

Q: What about the Systolic blood pressure [2, 12] of the same compound?
A: 143.5 mmHg

Q: And the Diastolic blood pressure [2, 13]?
A: 80.5 mmHg

Q: What about the Systolic blood pressure [2, 13] of the same compound?
A: 137.0 mmHg

Q: What about the Diastolic blood pressure [2, 14] of the same compound?
A: 89.0 mmHg

Q: And the Systolic blood pressure [2, 14]?
A: 150.0 mmHg

Q: And the Diastolic blood pressure [2, 15]?
A: 87.0 mmHg

Q: What about the Systolic blood pressure [2, 15] of the same compound?
A: 150.0 mmHg

Q: What about the Diastolic blood pressure [2, 16] of the same compound?
A: 88.5 mmHg

Q: What about the Systolic blood pressure [2, 16] of the same compound?
A: 145.0 mmHg

Q: What about the Diastolic blood pressure [2, 17] of the same compound?
A: 88.5 mmHg

Q: And the Systolic blood pressure [2, 17]?
A: 139.5 mmHg

Q: And the Homocysteine ([3]; CC genotype, Post 16 weeks riboflavin 1.6 mg/day, n = 32)?
A: 9.8 (3.6) μmol/l

Q: What about the Homocysteine ([3]; CC genotype, Pre intervention, n = 32) of the same compound?
A: 10.1 (3.9) μmol/l

Q: What about the Homocysteine ([3]; CT genotype, Post 16 weeks riboflavin 1.6 mg/day, n = 35) of the same compound?
A: 10.6 (6.3) μmol/l

Q: What about the Homocysteine ([3]; CT genotype, Pre intervention, n = 35) of the same compound?
A: 10.5 (3.8) μmol/l

Q: What about the Homocysteine ([3]; TT genotype, Post 16 weeks riboflavin 1.6 mg/day, n = 25) of the same compound?
A: 10.0 (3.1) μmol/l

Q: What about the Homocysteine ([3]; TT genotype, Pre intervention, n = 25) of the same compound?
A: 11.3 (4.4) μmol/l
